Each block holds one compound with its values, some of them ahead of it. [BNA] = bridged nucleic acid nucleotide (BNA), bridge type not specified for this compound; d = 2'-deoxy (DNA)
What was measured:
YB-1 [1] = test: Screening of antisense oligo-nucleic acids by YB-1 expression-inhibitory ability in cancer cells (Lipofectamine RNAiMax); format: cell-based, human
pancreatic cancer cells = test: Proliferation by MTT assay, pancreatic cancer cells; format: cell-based; details: final concentration 50 nM, vs control antisense oligo-nucleic acid
Procedure: (§1) Then, pancreatic cancer and vascular endothelial cell proliferation-suppressing effects of ASO#10 (also referred to as “YB-1 ASO”, TCTcctgcaccCTGg, SEQ ID NO: 2) were examined. The cells were inoculated into wells of a 96-well plate at a density of 60% confluent, ASO#10 was introduced into the pancreatic cancer cells at a final concentration of 50 nM, and endothelial cells at a final concentration of 5 nM on the next day by using the gene transduction reagent Lipofectamine RNAiMax, and then the proliferation ability was periodically measured by the MTT assay method. […] In addition, it was also confirmed that gastric cancer and breast cancer are also knocked down by ASO#10.

[2] = tested on: vascular endothelial cells; test: Proliferation by MTT assay, endothelial cells; format: cell-based; details: final concentration 5 nM, vs control antisense oligo-nucleic acid
Procedure: as §1

HUVEC = test: Cell cycle analysis by PI flow cytometry, HUVEC; format: cell-based; details: 5 nM, 72 hours
Procedure: (§2) In order to elucidate the mechanism of the pancreatic cancer cell and endothelial cell proliferation inhibitory effect observed in Example 2, YB-1 ASO BNA (TCTcctgcaccCTGg, SEQ ID NO: 2, the parts of the capital letters in the sequence correspond to BNAs, the same shall apply to the following examples) was introduced at a concentration of 5 nM into the endothelial cells (1×10^5/well) under the same conditions as mentioned above. After 72 hours from the introduction, the cells were incubated with PI (1 μg/ml) at 37° C. for 30 minutes, and then cell cycle analysis was performed by using a flow cytometer (FACS CantoII).

HPAEC cells = test: Cell cycle analysis by PI flow cytometry, HPAEC; format: cell-based; details: 5 nM, 72 hours
Procedure: as §2

[3] = tested on: vascular endothelial HUVEC cells; test: Annexin V-FITC apoptosis observation; format: cell-based
CDK1 and Cyclin B1 = test: Protein expression of CDK1 and Cyclin B1 in HUVEC and HPAEC cells; format: cell-based; details: vs control antisense oligonucleotide
[4] = tested on: MiaPaCa-luc pancreatic cancer cells; test: Local administration into MiaPaCa-luc subcutaneous tumors, IVIS imaging; format: in vivo, nude mice; details: 10 μM with atelocollagen 1:1, local, once a week, total twice; vs control antisense oligo BNA
Procedure: The MiaPaCa-luc pancreatic cancer cells stably expressing luciferase were subcutaneously transplanted into the thighs of nude mice to prepare subcutaneous tumors in a size of 6 to 7 mm. A mixture of YB-1 ASO BNA (final concentration, 10 μM) and atelocollagen implant at a volume ration of 1:1 was locally administered into the tumors (once a week, total twice), and the tumor volume (luciferase activity) was evaluated over time by IVIS imaging.

[5] = tested on: SUIT2 pancreatic cancer cells; test: Administration of YB-1 ASO BNA into blood, SUIT2 subcutaneous tumor; format: in vivo, nude mice; details: 200 μg/200 μL caudal vein, once a week, total 3 times
Source text: (§3) The SUIT2 pancreatic cancer cells or HCT116 large intestine cancer cells were subcutaneously transplanted into the thighs of nude mice to prepare subcutaneous tumors in a size of 6 to 7 mm. […] YB-1 ASO BNA suppressed proliferation of the tumors to a size of ¼ to ⅕ of those observed with the control antisense BNA (FIG. 5).

[6] = tested on: HCT116 large intestine cancer cells; test: Administration of YB-1 ASO BNA into blood, HCT116 subcutaneous tumor; format: in vivo, nude mice; details: 200 μg/200 μL caudal vein, once a week, total 3 times
Source text: as §3

YB-1 [7] = test: YB-1 expression in tumor, liver, kidney after administration into blood, real-time RT-PCR; format: in vivo, nude mice; details: HCT116 model, 200 μg/200 μL caudal vein, once a week, total 2 times, 48 hours after final administration
Procedure: After 48 hours from the final administration, subcutaneous tumors, livers, and kidneys were extracted, RNAs were extracted, and YB-1 expression was analyzed by real-time RT-PCR.

YB-1 and CD31 = test: Immunostaining of YB-1 and CD31 in frozen tumor sections; format: in vivo, nude mice; details: HCT116 model; vs control antisense BNA
[8] = General blood and biochemical examinations, mice with HCT116 sc tumor; details: 10 mg/kg BW i.v. once a week for three weeks, blood one week after final treatment
Procedure: (§5) Subcutaneous tumor models were created by subcutaneously transplanting gemcitabine-resistant pancreatic cancer SUIT2-GR cells and large intestine cancer HCT116 cells to the thighs of nude mice. After tumors having a volume of 50 mm^3 were formed, 10 mg/kg BW of #10AmNA YB-1 antisense was administered from the caudal veins once a week over three weeks. The tumor diameters were measured over time.

[9] = General blood and biochemical examinations, mice with Suit2-GR sc tumor; details: Suit2-GR sc Tumor; 10 mg/kg BW i.v. once a week for three weeks; blood one week after final treatment
Procedure: as §5

[10] = Safety of administration of YB-1 ASO BNA into blood, blood biochemical examinations
Procedure: YB-1 ASO BNA (indicated as “ASO-YBX1” in FIG. 7) at a concentration of 100 μg/200 μL or 200 μg/200 μL was administered once into the blood of nude mice from the caudal veins. After 48 hours, blood was collected, and examined by blood biochemical examinations for ALT, T-Bil, BUN, and creatinin in order to evaluate the liver and kidney functions.

[11] = tested on: human pancreatic cancer SUIT2 cell strain, resistant strain; test: Gemcitabine sensitivity of gemcitabine-resistant SUIT2 strain; format: cell-based; details: SUIT-2
Procedure: (§4) A human pancreatic cancer SUIT2 cell strain was prepared by culturing pancreatic cancer cells resistant to the anticancer agent, gemcitabine, for a long period of time in a medium containing gemcitabine at a low concentration (IC50 value, 100 nM for the resistant strain vs. 5 nM for the parent strain). Subcutaneous tumors were prepared in the same manner as that of Example 10, and 200 μg/200 μL of YB-1 ASO AmNA or control antisense was administered into the blood according to the same protocol (once every two weeks, total 2 times).

[12] = tested on: human pancreatic cancer SUIT2 cell strain, parent strain; test: Gemcitabine sensitivity of SUIT2 parent strain; format: cell-based; details: SUIT-2
Procedure: as §4

Compound: TCTcctgcaccCTGg (TCTCCTGCACCCTGG; chemistry not fully specified) [ASO#10]
YB-1 knockdown in gastric cancer and breast cancer (YB-1 [1]): knocked down
pancreatic cancer cell proliferation inhibitory effect (pancreatic cancer cells): Significantly higher
endothelial cell proliferation inhibitory effect [2]: Significantly higher
G2/M fraction (HUVEC): 14.5%
subG1 fractionation (HUVEC): 17.7%
G2/M fraction (HPAEC cells): 14.0%
subG1 fractionation (HPAEC cells): 18.7%
Annexin V-positive cells [3]: increase in Annexin V-positive cells
expression levels of CDK1 and Cyclin B1 (CDK1 and Cyclin B1): clearly suppressed
tumor volume (luciferase activity) [4]: significant suppression
tumor size as fraction of that with control antisense BNA [5]: ¼ to ⅕
tumor size as fraction of that with control antisense BNA [6]: ¼ to ⅕
YB-1 expression in the tumors, livers, and kidneys as fraction of control antisense BNA (YB-1 [7]; listed as YB-1 ASO BNA): about ⅓
YB-1 expression in the tumors, livers, and kidneys as fraction of control antisense BNA (YB-1 [7]; listed as YB-1 antisense oligo BNA): suppresses expression of YB-1
expression of YB-1 and CD31 in tumor tissues (immunostaining) (YB-1 and CD31): reduced

Compound: CATttcgaagtACTc (antisense CATTTCGAAGTACTC; AmNA-modified units marked by uppercase, key not given here) [Ctrl]
ALT [8]: 26 ± 3 IU/L
AST [8]: 80 ± 10 IU/L
BUN [8]: 21.2 ± 2.0 mg/dL
CRE [8]: 0.07 ± 0.03 mg/dL
HCT [8]: 35.7 ± 2.7%
HGB [8]: 13.1 ± 0.3 g/dL
PLT [8]: 136.2 ± 10.8 ×10^4/μl
RBC [8]: 715 ± 55 ×10^4/μl
T-BIL [8]: 0.06 ± 0.02 mg/dL
WBC [8]: 48 ± 8 ×10^2/μl
ALT [9]: 45 ± 19 IU/L
AST [9]: 170 ± 183 IU/L
BUN [9]: 27.9 ± 5.4 mg/dL
CRE [9]: 0.10 ± 0.03 mg/dL
HCT [9]: 38.5 ± 2.1%
HGB [9]: 12.2 ± 0.6 g/dL
PLT [9]: 100.5 ± 33.3 ×10^4/μl
RBC [9]: 779 ± 39 ×10^4/μl
T-BIL [9]: 0.03 ± 0.01 mg/dL
WBC [9]: 29 ± 12 ×10^2/μl

Compound: CATttcgaagtACTc (antisense CATTTCGAAGTACTC; sugars from the 5' end [BNA]3 d8 [BNA]3 d1, backbone and methylation of C not given here) [control antisense oligo-BNA, reference compound]
G2/M fraction (HUVEC): 22.1%
subG1 fractionation (HUVEC): 2.0%
G2/M fraction (HPAEC cells): 28.5%
subG1 fractionation (HPAEC cells): 1.3%
Annexin V-positive cells [3]: hardly observed
ALT, T-Bil, BUN, creatinin (liver and kidney functions) ([10]; 100 μg/200 μL or 200 μg/200 μL once, caudal vein, 48 hours): any functional abnormality was not observed
liver function markers AST and T-Bil ([10]; repeatedly administered 3 times): did not show any functional abnormality

IC50 [11]: 100 nM
IC50 [12]: 5 nM
Compound: Nc1ccn([C@@H]2O[C@H](CO)[C@@H](O)C2(F)F)c(=O)n1 [gemcitabine]

— US20170211073A1, “ANTISENSE ANTINEOPLASTIC AGENT” (priority 2014, published 2017)
